Experimental data taken from patent publication US20240066027A1 (DOMAIN THERAPEUTICS, priority 2020, published 2024).

Target: T1, human PAR-2 (hPAR-2) receptor expressed in HEK-293 T cells in an endogenous manner (Homo sapiens, UniProt P55085)
T1 construct: human PAR-2 (hPAR-2) receptor expressed in HEK-293 T cells in an endogenous manner; endogenous in cells; host or cells: HEK-293 T cells
T1 sequence (P55085 26-397): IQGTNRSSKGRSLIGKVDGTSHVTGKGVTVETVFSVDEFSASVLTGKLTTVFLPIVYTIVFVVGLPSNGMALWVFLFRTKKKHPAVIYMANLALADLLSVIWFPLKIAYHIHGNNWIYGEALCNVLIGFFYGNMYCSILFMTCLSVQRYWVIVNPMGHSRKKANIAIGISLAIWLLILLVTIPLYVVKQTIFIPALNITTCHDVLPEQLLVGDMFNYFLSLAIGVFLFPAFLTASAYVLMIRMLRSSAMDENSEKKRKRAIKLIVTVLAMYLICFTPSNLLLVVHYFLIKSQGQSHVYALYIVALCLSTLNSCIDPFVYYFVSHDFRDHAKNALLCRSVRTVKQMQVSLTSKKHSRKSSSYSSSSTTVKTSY
Test: In vitro human PAR-2 functional antagonist activity using calcium assays (Fluo4AM, FLIPR Tetra)
Format: cell-based
Details: HEK-293 T cells stimulated by an EC80 of the 2-Furoyl-LIGRLO-NH2 peptide after 10 min incubation with compound; 20 concentrations, duplicate, two independent experiments
Experimental: In vitro human PAR-2 functional antagonist activity using calcium assays
Examples of the present invention were tested successively for their agonist and antagonist activities on human PAR-2 (hPAR-2) receptor expressed in HEK-293 T cells in an endogenous manner. Compounds exert agonist activity if, by themselves in absence of the 2-Furoyl-LIGRLO-NH2 peptide (selective hPAR-2 agonist), they activate PAR-2; they exert antagonist activity if they decrease the action of the 2-Furoyl-LIGRLO-NH2 peptide on the receptor. The assay used to determine compound activity is based on calcium measurement.
Cell Culture: HEK-293 T cells were maintained in Dulbecco's Modified Eagle's Medium supplemented with 10% Foetal Calf Serum, 1% Penicillin/Streptomycin at 37° C./5% CO2. Flasks for tests (F75) are seeded with 6e+06 cells 24 h before the experiment at 37° C./5% CO2.
Calcium assay: Receptor activity was detected by changes in intracellular calcium measured using the fluorescent Ca^2+ sensitive dye, Fluo4AM (Molecular Probes).
The day of the assay, medium was replaced by assay buffer (HBSS 1× (Gibco 14175-053), Hepes 20 mM, MgSO4-7H2O 1 mM, Na2CO3 3.3 mM, CaCl2-2H2O 1.3 mM, 0.5% BSA, Probenecid 2.5 mM, 0.1 mg/mL Pluronic Acid) and complemented with 1 μM Fluo4AM and cells were incubated during 1:30 h at 37° C.
Cells were then detached, resuspended in assay buffer and seeded in 384 wells, transparent-flat bottom black walled plates (2e+04 cells per well). Plates were incubated at +22° C. for 20 min. Compounds stock solutions were prepared in 100% DMSO and dilutions in test buffer were carried out in polypropylene plates with a digital dispenser (D300e, Tecan). Compounds were added to the cells and intracellular Ca^2+ measurements were collected at the same time on FLIPR Tetra® (Molecular Devices) with specific filters (Exc: 470-495 nm/Em: 515-575 nm).
Agonist and antagonist activities of compounds were consecutively evaluated on the same cell plate. Agonist activity was first measured after 10 min incubation with the compound alone. Then, cells were stimulated by an EC80 of the 2-Furoyl-LIGRLO-NH2 peptide and fluorescence was recorded for an additional 5 min. EC80 of the 2-Furoyl-LIGRLO-NH2 peptide was the concentration giving 80% of the maximal 2-Furoyl-LIGRLO-NH2 response. Agonist activities are evaluated in comparison to basal signals evoked by assay buffer or maximal 2-Furoyl-LIGRLO-NH2 response. […] Antagonist activities are evaluated in comparison to basal signals evoked by assay buffer or EC80 of 2-Furoyl-LIGRLO-NH2 alone.

| Compound | IC50 |
| --- | --- |
| Cc1cc(N(C)C2CCN(C(=O)c3ccc4c(-c5ccc(Cl)c(F)c5)cn(C(C)(C)C)c4n3)CC2C)nc(C)c1C(=O)O (mixture of isomers) [Example 199, 6-((1-(1-(tert-butyl)-3-(4-chloro-3-fluorophenyl)-1H-pyrrolo[2,3-b]pyridine-6-carbonyl)-3-methylpiperidin-4-yl)(methyl)amino)-2,4-dimethylnicotinic acid] | 20 to 10000 nM |
| CC1(C)C(=O)NCCN1C(=O)c1ccc2c(-c3ccc(Cl)c(F)c3)cn(C(C)(C)C)c2n1 [Example 1, 4-(1-(tert-butyl)-3-(4-chloro-3-fluorophenyl)-1H-pyrrolo[2,3-b]pyridine-6-carbonyl)-3,3-dimethylpiperazin-2-one] | < 20 nM |
| CN1CCN(C(=O)c2ccc3c(-c4ccc(Cl)c(F)c4)cn(C(C)(C)C)c3n2)C(C)(C)C1=O [Example 2, 4-(1-(tert-butyl)-3-(4-chloro-3-fluorophenyl)-1H-pyrrolo[2,3-b]pyridine-6-carbonyl)-1,3,3-trimethylpiperazin-2-one] | < 20 nM |
| COC(=O)CN1CCN(C(=O)c2ccc3c(-c4ccc(Cl)c(F)c4)cn(C(C)(C)C)c3n2)C(C)(C)C1=O [Example 3, methyl 2-(4-(1-(tert-butyl)-3-(4-chloro-3-fluorophenyl)-1H-pyrrolo[2,3-b]pyridine-6-carbonyl)-3,3-dimethyl-2-oxopiperazin-1-yl)acetate] | < 20 nM |
| CC1(C)C(=O)N(CC(=O)O)CCN1C(=O)c1ccc2c(-c3ccc(Cl)c(F)c3)cn(C(C)(C)C)c2n1 [Example 4, 2-(4-(1-(tert-butyl)-3-(4-chloro-3-fluorophenyl)-1H-pyrrolo[2,3-b]pyridine-6-carbonyl)-3,3-dimethyl-2-oxopiperazin-1-yl)acetic acid] | 20 to 10000 nM |
| CC1(C)C(=O)N(CC(N)=O)CCN1C(=O)c1ccc2c(-c3ccc(Cl)c(F)c3)cn(C(C)(C)C)c2n1 [Example 5, 2-(4-(1-(tert-butyl)-3-(4-chloro-3-fluorophenyl)-1H-pyrrolo[2,3-b]pyridine-6-carbonyl)-3,3-dimethyl-2-oxopiperazin-1-yl)acetamide] | < 20 nM |
| CNC(=O)CN1CCN(C(=O)c2ccc3c(-c4ccc(Cl)c(F)c4)cn(C(C)(C)C)c3n2)C(C)(C)C1=O [Example 6, 2-(4-(1-(tert-butyl)-3-(4-chloro-3-fluorophenyl)-1H-pyrrolo[2,3-b]pyridine-6-carbonyl)-3,3-dimethyl-2-oxopiperazin-1-yl)-N-methylacetamide] | < 20 nM |
| CN(C)C(=O)CN1CCN(C(=O)c2ccc3c(-c4ccc(Cl)c(F)c4)cn(C(C)(C)C)c3n2)C(C)(C)C1=O [Example 7, 2-(4-(1-(tert-butyl)-3-(4-chloro-3-fluorophenyl)-1H-pyrrolo[2,3-b]pyridine-6-carbonyl)-3,3-dimethyl-2-oxopiperazin-1-yl)-N,N-dimethylacetamide] | < 20 nM |
| CC1(C)C(=O)N(CC(=O)N2CCOCC2)CCN1C(=O)c1ccc2c(-c3ccc(Cl)c(F)c3)cn(C(C)(C)C)c2n1 [Example 8, 4-(1-(tert-butyl)-3-(4-chloro-3-fluorophenyl)-1H-pyrrolo[2,3-b]pyridine-6-carbonyl)-3,3-dimethyl-1-(2-morpholino-2-oxoethyl)piperazin-2-one] | < 20 nM |
| CC(C)(C)n1cc(-c2ccc(Cl)c(F)c2)c2ccc(C(=O)N3CC4(CCOC4)C3)nc21 [Example 9, (1-(tert-butyl)-3-(4-chloro-3-fluorophenyl)-1H-pyrrolo[2,3-b]pyridin-6-yl)(6-oxa-2-azaspiro[3.4]octan-2-yl)methanone] | > 10000 nM |
| CC(C)(C)n1cc(-c2ccc(Cl)c(F)c2)c2ccc(C(=O)N3CC4(COC4)C3)nc21 [Example 10, (1-(tert-butyl)-3-(4-chloro-3-fluorophenyl)-1H-pyrrolo[2,3-b]pyridin-6-yl)(2-oxa-6-azaspiro[3.3]heptan-6-yl)methanone] | > 10000 nM |
| CC(C)(C)n1cc(-c2ccc(Cl)c(F)c2)c2ccc(C(=O)N3[C@@H]4CC[C@H]3CC(O)C4)nc21 (stereo partly drawn) [Example 11, (1-(tert-butyl)-3-(4-chloro-3-fluorophenyl)-1H-pyrrolo[2,3-b]pyridin-6-yl)((1R,3r,5S)-3-hydroxy-8-azabicyclo[3.2.1]octan-8-yl)methanone] | > 10000 nM |
| CC(C)(C)n1cc(-c2ccc(Cl)c(F)c2)c2ccc(C(=O)N3CCC4(CCNC4=O)CC3)nc21 [Example 13, 8-(1-(tert-butyl)-3-(4-chloro-3-fluorophenyl)-1H-pyrrolo[2,3-b]pyridine-6-carbonyl)-2,8-diazaspiro[4.5]decan-1-one] | 20 to 10000 nM |
| CC(C)(C)n1cc(-c2ccc(Cl)c(F)c2)c2ccc(C(=O)N3CCC4(CC3)CNC(=O)C4)nc21 [Example 14, 8-(1-(tert-butyl)-3-(4-chloro-3-fluorophenyl)-1H-pyrrolo[2,3-b]pyridine-6-carbonyl)-2,8-diazaspiro[4.5]decan-3-one] | 20 to 10000 nM |
| CC(C)(C)n1cc(-c2ccc(Cl)c(F)c2)c2ccc(C(=O)N3CC[C@H]4CNC(=O)[C@H]43)nc21 [Example 15, (3aS,6aS)-1-(1-(tert-butyl)-3-(4-chloro-3-fluorophenyl)-1H-pyrrolo[2,3-b]pyridine-6-carbonyl)hexahydropyrrolo[3,4-b]pyrrol-6(1H)-one] | 20 to 10000 nM |
| CC1(C)CCCN1C(=O)c1ccc2c(-c3ccc(Cl)c(F)c3)cn(C(C)(C)C)c2n1 [Example 16, (1-(tert-butyl)-3-(4-chloro-3-fluorophenyl)-1H-pyrrolo[2,3-b]pyridin-6-yl)(2,2-dimethylpyrrolidin-1-yl)methanone] | 20 to 10000 nM |
| CC(C)(C)n1cc(-c2ccc(Cl)c(F)c2)c2ccc(C(=O)N3CCCNC(=O)C3)nc21 [Example 17, 4-(1-(tert-butyl)-3-(4-chloro-3-fluorophenyl)-1H-pyrrolo[2,3-b]pyridine-6-carbonyl)-1,4-diazepan-2-one] | 20 to 10000 nM |
| CC(C)(C)n1cc(-c2ccc(Cl)c(F)c2)c2ccc(C(=O)N3CCNC(=O)CC3)nc21 [Example 18, 1-(1-(tertbutyl)-3-(4-chloro-3-fluorophenyl)-1H-pyrrolo[2,3-b]pyridine-6-carbonyl)-1,4-diazepan-5-one] | 20 to 10000 nM |
| CC(C)(C)n1cc(-c2ccc(Cl)c(F)c2)c2ccc(C(=O)N3[C@@H]4CC[C@H]3COC4)nc21 [Example 19, ((1R,5S)-3-oxa-8-azabicyclo[3.2.1]octan-8-yl)(1-(tertbutyl)-3-(4-chloro-3-fluorophenyl)-1H-pyrrolo[2,3-b]pyridin-6-yl)methanone] | 20 to 10000 nM |
| CN1CCN(C(=O)c2ccc3c(-c4ccc(Cl)c(F)c4)cn(C(C)(C)C)c3n2)CC1=O [Example 20, 4-(1-(tertbutyl)-3-(4-chloro-3-fluorophenyl)-1H-pyrrolo[2,3-b]pyridine-6-carbonyl)-1-methylpiperazin-2-one] | 20 to 10000 nM |
| COC(=O)C1CCN(C(=O)c2ccc3c(-c4ccc(Cl)c(F)c4)cn(C(C)(C)C)c3n2)CC1(C)C (centres unmarked) [Example 21, methyl 1-(1-(tert-butyl)-3-(4-chloro-3-fluorophenyl)-1H-pyrrolo[2,3-b]pyridine-6-carbonyl)-3,3-dimethylpiperidine-4-carboxylate] | 20 to 10000 nM |
| CC1(C)CN(C(=O)c2ccc3c(-c4ccc(Cl)c(F)c4)cn(C(C)(C)C)c3n2)CCC1C(=O)O (centres unmarked) [Example 22, 1-(1-(tert-butyl)-3-(4-chloro-3-fluorophenyl)-1H-pyrrolo[2,3-b]pyridine-6-carbonyl)-3,3-dimethylpiperidine-4-carboxylic acid] | 20 to 10000 nM |
| CC1(C)CN(C(=O)c2ccc3c(-c4ccc(Cl)c(F)c4)cn(C(C)(C)C)c3n2)CCC1C(N)=O (centres unmarked) [Example 23, 1-(1-(tert-butyl)-3-(4-chloro-3-fluorophenyl)-1H-pyrrolo[2,3-b]pyridine-6-carbonyl)-3,3-dimethylpiperidine-4-carboxamide] | 20 to 10000 nM |
